In brackets after ≈: the same amount, converted by molar mass.
Experiments:
[1] = Solubility of coumarins in RPMI 1640 media and DMSO; format: physicochemical; settings: for solubility: aqueous buffer, kinetic from dmso stock, pH = 7.0, in presence of the DMSO concentration of the same table line
Method: The solubility of the aglycones was compared to the respective glycoside in RPMI 1640 media and in DMSO.
(§1) Solubilisation of other compounds required the presence of DMSO. Esculetin, daphnetin, 4-(trifluoromethyl) coumarin, 4-(trifluoromethyl)-coumarin-7-0-glucose and cichoriin were dissolved in DMSO at 1000× final test concentration; when this solution was diluted to the concentration used in the experiments using 2× strength RPMI 1640 medium, the final concentration of DMSO was […] which alone had no effect on the fungi when tested in several experiments performed. Fraxetin required a final concentration of 0.2% DMSO, but this too had no effect on the growth of the fungi when tested in separate experiments.

[2] = tested on: Trichophyton interdigitale NCPF335; assay: Antifungal activity, growth in RPMI 1640 microtitre plates (OD 530 nm); format: cell-based; settings: for MIC: Trichophyton interdigitale, T. interdigitale NCPF335, 30° C.
Method: (§2) Esculin, esculetin and a range of other coumarins and their glycosides were tested for their antifungal activity against Trichophyton rubrum, Trichophyton interdigitale and other fungi isolated from nails and skin.
(§3) Suspensions of fungal conidia and hyphal fragments for use as experimental inocula were prepared by adding 3 ml of demineralised water or 0.15% (w/v) NaCl solution to a slope culture which had been incubated at 30° C. for 7 to 10 days and probing the surface of the culture with a sterile plastic transfer pipette. […] The resulting suspension was filtered through a double layer of sterile surgical gauze; if necessary a further volume of up to 3 ml of water or 0.15% (w/v) NaCl was used to wash through any spores or small hyphal fragments held on the gauze. 100 μl of this suspension, adjusted to an optical density between 0.14 and 0.16 at 530 nm (corresponding to between 0.5 and 1.5×10^6 propagules/ml) was added to the wells in sterile 96-well microtitre plates to which 100 μl of 2× strength RPMI 1640 media (a chemically-defined nutrient medium widely used in tissue culture and antimicrobial resistance testing) had been added. Inocula prepared in this way were used in all of the experiments; additionally, for some experiments with esculin shown in FIG. 4, the results obtained with standard inocula prepared as described above (labelled “young inoculum” in FIG. 4), were compared with the results obtained in similar tests using inocula which had been cultured for up to 9 weeks (labelled “old inoculum” in FIG. 4). As appropriate, coumarins were pre-dissolved in 2× strength RPMI 1640 medium before addition to the plate. Experiments with the yeasts Candida albicans and Candida krusei were set up in the same way, but in these cases, filtration of the cell suspensions was not necessary.
as §1
(§4) A series of dilutions of the coumarin solutions was prepared on the plates by mixing known volumes of the coumarin stock solutions in the wells with fresh volumes of 2×RPMI 1640 medium. Each concentration of coumarin was studied in triplicate wells. For observations on Trichophyton rubrum NCPF118 and Trichophyton interdigitale NCPF335, obtained from the National Collection of Pathogenic Fungi (Bristol), the plates were incubated in a Bio-Tek Powerwave XS scanning plate reader at 30° C., and fungal growth within the plates was measured at intervals of 2 h for up to 72 h or 96 h as specified in the text by recording the absorbance (optical density) of the wells at 530 nm. Observations on Candida albicans and Candida krusei were made in the same way, but the incubation temperature was 37° C. and the incubation time was 48 h. For observations with clinical fungal isolates obtained from the collection of M. Monod (Lausanne, Switzerland), the procedure was as described above except that in response to the relatively slow growth of these isolates, incubations were performed in a static incubator at 30° C. and the plates were read manually in a Bio-Tek Powerwave XS scanning plate reader at intervals of 24 h for up to 168 h, being returned to the incubator after each reading. Malassezia furfur grows poorly in the system described above, so for this organism, a standard inoculum of M. furfur was mixed with an equal volume of a solution of esculetin and the mixture was plated onto Petri dishes containing Sabouraud's agar medium. […]

[3] = tested on: Trichophyton rubrum NCPF118; assay: as above; format: cell-based; settings: for MIC: Trichophyton rubrum, T. rubrum NCPF118, 30° C., read-out: MIC
Method: as §2, §3, §1, §4

[4] = tested on: T. mentagrophytes var interdigitale strain 386; assay: Sensitivity of clinical isolates of dermatophytes to esculetin; format: cell-based, Trichophyton mentagrophytes var. interdigitale; design: key to Sensitive (S) or Resistant (R): Sensitive (S); Resistant (R); settings: strain 386, 1 strain tested
Method: as §2
(§5) Suspensions of fungal conidia and hyphal fragments for use as experimental inocula were prepared by adding 3 ml of demineralised water or 0.15% (w/v) NaCl solution to a slope culture which had been incubated at 30° C. for 7 to 10 days and probing the surface of the culture with a sterile plastic transfer pipette. […] The resulting suspension was filtered through a double layer of sterile surgical gauze; if necessary a further volume of up to 3 ml of water or 0.15% (w/v) NaCl was used to wash through any spores or small hyphal fragments held on the gauze. […]
(§6) A series of dilutions of the coumarin solutions was prepared on the plates by mixing known volumes of the coumarin stock solutions in the wells with fresh volumes of 2×RPMI 1640 medium. […] For observations on Trichophyton rubrum NCPF118 and Trichophyton interdigitale NCPF335, obtained from the National Collection of Pathogenic Fungi (Bristol), the plates were incubated in a Bio-Tek Powerwave XS scanning plate reader at 30° C., and fungal growth within the plates was measured at intervals of 2 h for up to 72 h or 96 h as specified in the text by recording the absorbance (optical density) of the wells at 530 nm. […]

T. tonsurans = assay: as above; format: cell-based, Trichophyton tonsurans; design: key to Sensitive (S) or Resistant (R): Sensitive (S); Resistant (R); settings: 2 strains tested
Method: as §2, §5, §6

T. soudanense = assay: as above; format: cell-based, Trichophyton soudanense; design: key to Sensitive (S) or Resistant (R): Sensitive (S); Resistant (R); settings: 2 strains tested
Method: as §2, §5, §6

[5] = tested on: Candida albicans, Cryptococcus neoformans, Saccharomyces cerevisiae and Aspergillus niger; settings: Sardari et al, Bioorg. Med. Chem. 7, 1999; cited from earlier work
M. gypseum = assay: Sensitivity of clinical isolates of dermatophytes to esculetin; format: cell-based, Microsporum gypseum; design: key to Sensitive (S) or Resistant (R): Sensitive (S); Resistant (R); settings: clinical isolate, 1 strain tested
Method: as §2, §5, §6

T. mentagrophytes = assay: as above; format: cell-based, Trichophyton mentagrophytes; design: key to Sensitive (S) or Resistant (R): Sensitive (S); Resistant (R); settings: 27 strains tested
Method: as §2, §5, §6

Curvularia spp. = assay: Sensitivity of other fungal isolates of pathogenic fungi to esculetin; format: cell-based; design: key to Sensitive (S) or Resistant (R): Sensitive (S); Resistant (R); settings: 1 strain tested
Method: as §2, §3, §1, §4

Alternaria spp. = assay: as above; format: cell-based; design: key to Sensitive (S) or Resistant (R): Sensitive (S); Resistant (R); settings: 1 strain tested
Method: as §2, §3, §1, §4

[6] = tested on: Scopulariopsis brevicaulis; assay: as above; format: cell-based; design: key to Sensitive (S) or Resistant (R): Sensitive (S); Resistant (R); settings: 4 strains tested
Method: as §2, §3, §1, §4

Aspergillus fumigatus = assay: as above; format: cell-based; design: key to Sensitive (S) or Resistant (R): Sensitive (S); Resistant (R); settings: 1 strain tested
Method: as §2, §3, §1, §4

Fusarium spp. = assay: as above; format: cell-based; design: key to Sensitive (S) or Resistant (R): Sensitive (S); Resistant (R); settings: 15 strains tested
Method: as §2, §3, §1, §4

T. rubrum strain 1072 = assay: Sensitivity of clinical isolates of dermatophytes to esculetin; format: cell-based, Trichophyton rubrum; design: key to Sensitive (S) or Resistant (R): Sensitive (S); Resistant (R); settings: T. rubrum strain 1072, 3 tested
Method: as §2, §5, §6

Microsporum canis = assay: as above; format: cell-based; design: key to Sensitive (S) or Resistant (R): Sensitive (S); Resistant (R); settings: 4 strains tested
Method: as §2
(§7) Suspensions of fungal conidia and hyphal fragments for use as experimental inocula were prepared by adding 3 ml of demineralised water or 0.15% (w/v) NaCl solution to a slope culture which had been incubated at 30° C. for 7 to 10 days and probing the surface of the culture with a sterile plastic transfer pipette. […] The resulting suspension was filtered through a double layer of sterile surgical gauze; if necessary a further volume of up to 3 ml of water or 0.15% (w/v) NaCl was used to wash through any spores or small hyphal fragments held on the gauze. 100 μl of this suspension, adjusted to an optical density between 0.14 and 0.16 at 530 nm (corresponding to between 0.5 and 1.5×10^6 propagules/ml) was added to the wells in sterile 96-well microtitre plates to which 100 μl of 2× strength RPMI 1640 media (a chemically-defined nutrient medium widely used in tissue culture and antimicrobial resistance testing) had been added. Inocula prepared in this way were used in all of the experiments; additionally, for some experiments with esculin shown in FIG. 4, the results obtained with standard inocula prepared as described above (labelled “young inoculum” in FIG. 4), were compared with the results obtained in similar tests using inocula which had been cultured for up to 9 weeks (labelled “old inoculum” in FIG. 4). As appropriate, coumarins were pre-dissolved in 2× strength RPMI 1640 medium before addition to the plate. […]
as §4, with “Each concentration of coumarin was studied in triplicate wells.” left out, “Observations on Candida albicans and Candida krusei were made in the same way, but the incubation temperature was 37° C. and the incubation time was 48 h.” left out, “reading.” for “reading. Malassezia furfur grows poorly in the system described above, so for this organism, a standard inoculum of M. furfur was mixed with an equal volume of a solution of esculetin and the mixture was plated onto Petri dishes containing Sabouraud's agar medium.”

Trichophyton rubrum = assay: as above; format: cell-based; design: key to Sensitive (S) or Resistant (R): Sensitive (S); Resistant (R); settings: 48 strains tested
Method: as §2, §7
as §4, with “Each concentration of coumarin was studied in triplicate wells.” left out, “Observations on Candida albicans and Candida krusei were made in the same way, but the incubation temperature was 37° C. and the incubation time was 48 h.” left out, “reading.” for “reading. Malassezia furfur grows poorly in the system described above, so for this organism, a standard inoculum of M. furfur was mixed with an equal volume of a solution of esculetin and the mixture was plated onto Petri dishes containing Sabouraud's agar medium.”

[7] = DMSO present for the stated solubility in RPMI 1640
[8] = old inoculum (cultured up to 9 weeks) versus young inoculum, FIG. 4

## O=c1ccc2ccc(O)c(O)c2o1 [Daphnetin, 7,8-dihydroxycoumarin]
[1]; [7]
  DMSO Concentration: 0.1 % v/v
[1]
  solubility: 5000 µM
[2]
  MIC: 250 µM (≈ 44.5 µg/mL)
[3]
  MIC: 500 µM (≈ 89.1 µg/mL)

## O=c1ccc2cc(O)c(O)cc2o1 [Esculetin, 6,7 dihydroxycoumarin]
[4]
  MIC esculetin, range in mM: ≧2 mM
  Sensitive (S) or Resistant (R): R
T. tonsurans
  MIC esculetin, range in mM: 0.25 ± 0.18 mM (≈ 44.5 µg/mL)
  Sensitive (S) or Resistant (R): S
T. soudanense
  MIC esculetin, range in mM: 0.31 ± 0.27 mM (≈ 55.2 µg/mL)
  Sensitive (S) or Resistant (R): S
[5]
  antifungal activity against the fungi tested: minimal antifungal activity
M. gypseum
  MIC esculetin, range in mM: ≧2 mM
  Sensitive (S) or Resistant (R): R
[1]; RPMI 1640 medium with DMSO co-solvent
  solubility: 5000 µM
[1]; pH 7
  DMSO Concentration: 0.1 % v/v
T. mentagrophytes
  MIC esculetin, range in mM: 1.1 ± 0.5 mM (≈ 196 µg/mL)
  Sensitive (S) or Resistant (R): S
Curvularia spp.
  Sensitive (S) or Resistant (R): R
Curvularia spp.; Curvularia
  MIC: ≥ 2000 µM
Alternaria spp.
  Sensitive (S) or Resistant (R): S
Alternaria spp.; Alternaria
  MIC: 1000 µM (≈ 178 µg/mL)
[6]
  Sensitive (S) or Resistant (R): R
[6]; Scopulariopsis brevicaulis
  MIC: ≥ 2000 µM
Aspergillus fumigatus
  Sensitive (S) or Resistant (R): R
Aspergillus fumigatus; Aspergillus fumigatus
  MIC: ≥ 2000 µM
Fusarium spp.
  Sensitive (S) or Resistant (R): R
Fusarium spp.; Fusarium
  MIC: ≥ 2000 µM
T. rubrum strain 1072
  MIC esculetin, range in mM: ≧2 mM
  Sensitive (S) or Resistant (R): R
[3]; FIG. 3
  antifungal effect versus T. rubrum NCPF118: dose-dependent antifungal effect
Microsporum canis
  MIC esculetin, range in mM: 1.0 ± 0.58 mM (≈ 178 µg/mL)
  Sensitive (S) or Resistant (R): S
Trichophyton rubrum
  MIC esculetin, range in mM: 0.54 ± 0.37 mM (≈ 96.2 µg/mL)
  Sensitive (S) or Resistant (R): S

## O=c1ccc2cc(OC3OC(CO)C(O)C(O)C3O)c(O)cc2o1 (stereo not shown) [Esculin, 6,7 dihydroxycoumarin-6-glucoside]
[5]
  antifungal activity against the fungi tested: minimal antifungal activity
[1]; [7]
  DMSO Concentration: 0 % v/v
[1]
  solubility: 20000 µM
[1]; without DMSO
  solubility in 2×RPMI 1640 solution (in words): dissolves readily
[2]; addition of β-glucosidase and esculin, FIG. 2
  effect on the growth of Trichophyton interdigitale NCPF335: significantly inhibits fungal growth
[2]; [8]
  sensitivity of older cultures of T. interdigitale NCPF335: more sensitive
[3]; addition of β-glucosidase and esculin, FIG. 1
  effect on the growth of Trichophyton rubrum NCPF118: significantly inhibits fungal growth
[3]; [8]
  sensitivity of older cultures of T. rubrum NCPF118: more sensitive

## COc1cc2ccc(=O)oc2c(O)c1O [Fraxetin, 7,8 dihydroxy-6-methoxycoumarin]
[1]; [7]
  DMSO Concentration: 0.4 % v/v
[1]
  solubility: 5000 µM
[2]
  MIC: 500 µM (≈ 104 µg/mL)
[3]
  MIC: 250 µM (≈ 52 µg/mL)

From patent US20100267653A1, “USE OF COUMARIN DERIVATIVES IN ANTIFUNGAL THERAPY” (priority 2006, published 2010)
